Consider 18 compounds from patent US7319101B2, “COMT inhibitors for the treatment of depression and impaired cognition” (Hoffmann-La Roche Inc., priority 2003, dated 2008).

In one data set the target is T1, catechol-O-methyltransferase (COMT) obtained from rat liver (Rattus norvegicus, UniProt P22734).
T1 construct: from tissue; host or cells: rat liver homogenate
T1 sequence (P22734 1-264): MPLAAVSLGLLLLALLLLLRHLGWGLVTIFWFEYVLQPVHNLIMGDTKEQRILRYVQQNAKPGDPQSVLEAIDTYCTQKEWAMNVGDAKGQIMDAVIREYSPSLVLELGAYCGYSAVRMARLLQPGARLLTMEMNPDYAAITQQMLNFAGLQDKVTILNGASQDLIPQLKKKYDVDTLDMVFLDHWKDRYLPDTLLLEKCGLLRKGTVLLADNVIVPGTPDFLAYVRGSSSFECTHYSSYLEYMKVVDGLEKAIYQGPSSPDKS
Nature of the data set: COMT inhibition, radiochemical assay with rat liver homogenate (Zürcher et al.). The format is biochemical. The conditions noted are these: rat liver tissue extract; substrate benzene-1,2-diol 2.5 mM, [3H]SAM 183 μM; 15 min preincubation at 37° C., pH 7.6. How it is done: The inhibitory activity can be determined in vitro with COMT obtained from rat liver. Rat liver homogenate is incubated in the presence of a suitable substrate as described by Zürcher et al. in J. Neurochem. 1982, 38, 191-195 and the COMT activity is measured.
IC50 values were determined as follows: The inhibitors were dissolved in Me2SO as 1.2 mM stock solution and further diluted with Me2SO. The reactions were performed in standard polypropylene vials. 25 μl of the inhibitor in varying concentrations from 10^−4 to 10^−9 mol L^−1 were mixed with 215 μl freshly prepared buffer-substrate mixture consisting of 170 μl potassium phosphate buffer (0.1 mol L^−1, pH 7.6), 10 μl MgCl2, (0.1 mol L^−1), 10 μl dithiothreitol (0.065 mol L^−1) and 25 μl of tissue extract. The enzyme preparations were preincubated for 15 min at 37° C. The reaction was started by adding 30 μl substrate (benzene-1,2-diol, 0.025 mol L^−1), 10 μl [^3H]SAM (5.5 mmol L^−1, specific activity: 13.36 Bq mol^−1 (3.61 Cimol^−1) and 20 μl deionized H2O, reaching a final substrate concentration of 2.5 mM and a final [^1H]/[^3H]SAM concentration of 183 μM. The reaction was stopped after incubating the vials in a water-bath at 37° C. for 15 min by addition of 200 μl HOAc (5.7%) containing guaiacol (0.1 g L^−1). The reaction vessels were transferred into polyethylene scintillation vials and 3 ml of scintillation fluid (5 g butyl-PBD, dissolved in 200 ml toluene, made up to 1 L with n-hexane) was added.
The samples were counted in a Beckmann LS 6000 TA scintillation counter.
In the case of `Nc1ncnc2c1ncn2[C@@H]1O[C@H](/C=C/CNC(=O)c2cc(-c3ccncc3)cc(O)c2O)C(O)C1O` (stereo in doubt) [Example 12, N1-{(E)-3-[(3aR,4R,6R,6aR)-5-(6-amino-9H-purin-9-yl)-3,4-dihydroxytetrahydrofuran-2-yl]prop-2-enyl}-5-pyridin-4-yl-2,3-dihydroxy-benzamide], inhibition was half-maximal at 0.023 µM (IC50). That is a double-digit nanomolar value.
The same measure, in the same setting: under `Nc1ncnc2c1ncn2C1OC(C=CCNC(=O)c2cc([N+](=O)[O-])cc(O)c2O)C(O)C1O` (stereo not drawn) [comparative example, N-{3-[5-(6-Amino-purin-9-yl)-3,4-dihydroxy-tetrahydro-furan-2-yl]-allyl}-2,3-dihydroxy-5-nitro-benzamide, reference compound] stands 0.009 µM.
Same read-out and setting: under `Cc1ccc(-c2cc(O)c(O)c(C(=O)NC/C=C/[C@H]3O[C@@H](n4cnc5c(N)ncnc54)C(O)C3O)c2)cc1` (stereo in doubt) [Example 9, N1-{(E)-3-[(3aR,4R,6R,6aR)-5-(6-amino-9H-purin-9-yl)-3,4-dihydroxytetrahydrofuran-2-yl]prop-2-enyl}-5-p-tolyl-2,3-dihydroxy-benzamide] stands 0.023 µM; under `Nc1ncnc2c1ncn2[C@@H]1O[C@H](/C=C/CNC(=O)c2cc(Cl)cc(O)c2O)C(O)C1O` (stereo in doubt) [Example 7, N1-{(E)-3-[(3aR,4R,6R,6aR)-5-(6-amino-9H-purin-9-yl)-3,4-dihydroxytetrahydrofuran-2-yl]prop-2-enyl}-5-chloro-2,3-dihydroxy-benzamide], 0.044 µM; under `Nc1ncnc2c1ncn2[C@@H]1O[C@H](/C=C/CNC(=O)c2cc(C(=O)c3ccncc3)cc(O)c2O)C(O)C1O` (stereo in doubt) [Example 5, N1-{(E)-3-[(3aR,4R,6R,6aR)-5-(6-amino-9H-purin-9-yl)-3,4-dihydroxytetrahydrofuran-2-yl]prop-2-enyl}-5-(pyridine-4-carbonyl)-2,3-dihydroxy-benzamide], 0.042 µM.
The same measure, in the same setting: as for `Nc1ncnc2c1ncn2[C@@H]1O[C@H](/C=C/CNC(=O)c2cc(C(F)(F)F)cc(O)c2O)C(O)C1O` (stereo in doubt) [Example 16, N1-{(E)-3-[(3aR,4R,6R,6aR)-5-(6-amino-9H-purin-9-yl)-3,4-dihydroxytetrahydrofuran-2-yl]prop-2-enyl}-5-trifluoromethyl-2,3-dihydroxy-benzamide], the figure is 0.035 µM; as for `Nc1ncnc2c1ncn2[C@@H]1O[C@H](/C=C/CNC(=O)c2cc(-c3nccs3)cc(O)c2O)C(O)C1O` (stereo in doubt) [Example 10, N1-{(E)-3-[(3aR,4R,6R,6aR)-5-(6-amino-9H-purin-9-yl)-3,4-dihydroxytetrahydrofuran-2-yl]prop-2-enyl}-5-thiazol-2-yl-2,3-dihydroxy-benzamide], 0.027 µM; as for `Cc1ccc(C(=O)c2cc(O)c(O)c(C(=O)NC/C=C/[C@H]3O[C@@H](n4cnc5c(N)ncnc54)C(O)C3O)c2)cc1` (stereo in doubt) [Example 19, N1-{(E)-3-[(3aR,4R,6R,6aR)-5-(6-amino-9H-purin-9-yl)-3,4-dihydroxy-tetrahydrofuran-2-yl]prop-2-enyl}-5-(4-methyl-benzoyl)-2,3-dihydroxy-benzamide], 0.034 µM.
In turn, `CN(C)C(=O)c1cc(O)c(O)c(C(=O)NC/C=C/[C@H]2O[C@@H](n3cnc4c(N)ncnc43)C(O)C2O)c1` (stereo in doubt) [Example 14, N1-{(E)-3-[(3aR,4R,6R,6aR)-5-(6-amino-9H-purin-9-yl)-3,4-dihydroxytetrahydrofuran-2-yl]prop-2-enyl}-5-dimethylcarbamoyl-2,3-dihydroxy-benzamide] registered an IC50 of 2 µM.
Still for that read-out and setting: under `Nc1ncnc2c1ncn2[C@@H]1O[C@H](/C=C/CNC(=O)c2cc(Br)cc(O)c2O)C(O)C1O` (stereo in doubt) [Example 2, N1-{(E)-3-[(3aR,4R,6R,6aR)-5-(6-amino-9H-purin-9-yl)-3,4-dihydroxytetrahydrofuran-2-yl]prop-2-enyl}-5-bromo-2,3-dihydroxy-benzamide] stands 0.028 µM; under `N#Cc1cc(O)c(O)c(C(=O)NC/C=C/[C@H]2O[C@@H](n3cnc4c(N)ncnc43)C(O)C2O)c1` (stereo in doubt) [Example 3, N1-{(E)-3-[(3aR,4R,6R,6aR)-5-(6-amino-9H-purin-9-yl)-3,4-dihydroxytetrahydrofuran-2-yl]prop-2-enyl}-5-cyano-2,3-dihydroxy-benzamide], 0.029 µM; under `Cc1ccc(Cc2cc(O)c(O)c(C(=O)NC/C=C/[C@H]3O[C@@H](n4cnc5c(N)ncnc54)C(O)C3O)c2)cc1` (stereo in doubt) [Example 13, N1-{(E)-3-[(3aR,4R,6R,6aR)-5-(6-amino-9H-purin-9-yl)-3,4-dihydroxytetrahydrofuran-2-yl]prop-2-enyl}-5-(4-methyl-benzyl)-2,3-dihydroxy-benzamide], 0.608 µM.
The compound `Nc1ncnc2c1ncn2[C@@H]1O[C@H](/C=C/CNC(=O)c2cccc(O)c2O)C(O)C1O` (stereo in doubt) [Example 1, N1-{(E)-3-[(3aR,4R,6R,6aR)-5-(6-amino-9H-purin-9-yl)-3,4-dihydroxytetrahydrofuran-2-yl]prop-2-enyl}-2,3-dihydroxy-benzamide] gave a half-inhibitory concentration (IC50) of 2.6 µM.
The same measure, in the same setting: under `Nc1ncnc2c1ncn2[C@@H]1O[C@H](/C=C/CNC(=O)c2cc(C(=O)C3CCCCC3)cc(O)c2O)C(O)C1O` (stereo in doubt) [Example 6, N1-{(E)-3-[(3aR,4R,6R,6aR)-5-(6-amino-9H-purin-9-yl)-3,4-dihydroxytetrahydrofuran-2-yl]prop-2-enyl}-5-cyclohexanecarbonyl-2,3-dihydroxy-benzamide] stands 0.083 µM; under `Nc1ncnc2c1ncn2[C@@H]1O[C@H](/C=C/CNC(=O)c2cc(-c3ccc(F)cc3)cc(O)c2O)C(O)C1O` (stereo in doubt) [Example 8, N1-{(E)-3-[(3aR,4R,6R,6aR)-5-(6-amino-9H-purin-9-yl)-3,4-dihydroxytetrahydrofuran-2-yl]prop-2-enyl}-5-(4-fluoro-phenyl)-2,3-dihydroxy-benzamide], 0.021 µM.
Take `Cc1ccc(S(=O)(=O)c2cc(O)c(O)c(C(=O)NC/C=C/[C@H]3O[C@@H](n4cnc5c(N)ncnc54)C(O)C3O)c2)cc1` (stereo in doubt) [Example 18, N1-{(E)-3-[(3aR,4R,6R,6aR)-5-(6-amino-9H-purin-9-yl)-3,4-dihydroxytetrahydrofuran-2-yl]prop-2-enyl}-5-(toluene-4-sulfonyl)-2,3-dihydroxy-benzamide]: inhibition was half-maximal at 0.213 µM (IC50).
With `CN(C)C(=O)/C=C/c1cc(O)c(O)c(C(=O)NC/C=C/[C@H]2O[C@@H](n3cnc4c(N)ncnc43)C(O)C2O)c1` (stereo in doubt) [Example 15, N1-{(E)-3-[(3aR,4R,6R,6aR)-5-(6-amino-9H-purin-9-yl)-3,4-dihydroxytetrahydrofuran-2-yl]prop-2-enyl}-5-((E)-2-dimethylcarbamoyl-vinyl)-2,3-dihydroxy-benzamide], the half-maximal inhibitory concentration (IC50) came to 0.097 µM.
On to `Nc1ncnc2c1ncn2[C@@H]1O[C@H](/C=C/CNC(=O)c2cc(C(=O)C(F)(F)F)cc(O)c2O)C(O)C1O` (stereo in doubt) [Example 4, N1-{(E)-3-[(3aR,4R,6R,6aR)-5-(6-amino-9H-purin-9-yl)-3,4-dihydroxytetrahydrofuran-2-yl]prop-2-enyl}-5-(2,2,2-trifluoro-acetyl)-2,3-dihydroxy-benzamide], for which it took 0.039 µM to reach half-maximal inhibition (IC50). This IC50 is about 2.5-fold lower than that of the compound before.

Tested on in the next data set: not given
Test: not given
Conditions: not given
Consider `Nc1ncnc2c1ncn2[C@@H]1O[C@H](/C=C/CNC(=O)c2cc(-c3ccncc3)cc(O)c2O)C(O)C1O` (stereo in doubt) [Example 12, N1-{(E)-3-[(3aR,4R,6R,6aR)-5-(6-amino-9H-purin-9-yl)-3,4-dihydroxytetrahydrofuran-2-yl]prop-2-enyl}-5-pyridin-4-yl-2,3-dihydroxy-benzamide], for which the melting point is 133 to 137 °C (dec.).
Same read-out and setting: as for `Nc1ncnc2c1ncn2[C@@H]1O[C@H](/C=C/CNC(=O)c2cc(Br)cc(O)c2O)C(O)C1O` (stereo in doubt) [Example 2, N1-{(E)-3-[(3aR,4R,6R,6aR)-5-(6-amino-9H-purin-9-yl)-3,4-dihydroxytetrahydrofuran-2-yl]prop-2-enyl}-5-bromo-2,3-dihydroxy-benzamide], the figure is 123 °C (dec.).
On the same count and under the same terms, as for `Nc1ncnc2c1ncn2[C@@H]1O[C@H](/C=C/CNC(=O)c2cccc(O)c2O)C(O)C1O` (stereo in doubt) [Example 1, N1-{(E)-3-[(3aR,4R,6R,6aR)-5-(6-amino-9H-purin-9-yl)-3,4-dihydroxytetrahydrofuran-2-yl]prop-2-enyl}-2,3-dihydroxy-benzamide], the figure is 134 °C (dec.).

A word on the IC50: it is the point on the concentration scale where inhibition reaches its midpoint. A lower IC50 goes with inhibition by little substance. What is called melting point is the temperature, or range, at which the solid turns liquid.
